Test results as given in PubChem BioAssay AID540269 (Sanford-Burnham Center for Chemical Genomics, 2011).
Active and inactive are the calls of the source. How the calls were made is not given here.

These molecules were tested against glucose-6-phosphate dehydrogenase-6-phosphogluconolactonase (Plasmodium falciparum 3D7) (assay: inhibition of P. falciparum G6PD activity – biochemical, kinetic NADPH detection, orthogonal assay, dose response (AID 540269)). Conditions: purified PfG6PD-6PGL.

SMILES | IC50
Cc1ccc(S(=O)(=O)Nc2nc(C)c(C(=O)N/N=C/c3ccccc3)s2)cc1 | 31 µM
COc1ccc(C(=O)c2c(C(F)(F)F)oc3c2C(=O)c2ccccc2C3=O)cc1OC | > 80 µM (inactive)
C=CCc1c(C)[nH]c(=S)c(C#N)c1C | > 80 µM (inactive)
O=C(Nc1ccc([N+](=O)[O-])cc1Cl)c1cc(Cl)ccc1O | > 80 µM (inactive)
Oc1ccc(C2C[C@H]3CC[C@@H]2C3)cc1O (some centres not stated) | 48.6 µM
Cc1cc(C)c(NC(=S)NCC2CCN(C(C)c3ccccc3)C2)c(C)c1 (configuration not stated) | > 80 µM (inactive)
CC(=NNC(=S)N1CCN(c2ccccn2)CC1)c1nccs1 | > 80 µM (inactive)
CCOC(=O)c1c(C2COc3ccccc3O2)csc1NC(=O)c1ccco1 (configuration not stated) | > 80 µM (inactive)
CC(C)c1nnc(NC(=O)c2sc3ccccc3c2Cl)s1 | 35.5 µM
COc1ccc2c(c1)c(=Cc1ccc(N(C)C)cc1)c1cc(-c3ccccc3)[n+](C)n12 | 64.4 µM
O=c1c2ccccc2sn1-c1cc(S(=O)(=O)N2CCOCC2)ccc1N1CCCC1 | 12.5 µM
O=c1c2ccccc2sn1-c1nccs1 | 23.1 µM
Cc1ccc(NNS(=O)(=O)c2ccc(C)cc2)cc1 | 36.8 µM
Cc1ccnc(-n2sc3ccccc3c2=O)n1 | 26.4 µM
COc1cc(-c2nnc3n2N=C(c2ccccc2)CS3)cc(OC)c1OC | > 80 µM (inactive)
CCn1c2ccccc2c2cc(/C=N/n3cn[nH]c3=S)ccc21 | 9.07 µM
COc1cccc(C=Nc2cc(C(C)C)c(O)cc2C)c1O | > 80 µM (inactive)
O=c1c2ccccc2sn1-c1cccc(Cl)c1 | 14.2 µM
Oc1cc(-n2cccn2)c(O)cc1-n1cccn1 | 68.8 µM
COc1ccc(OC)c2c1C(=O)C(Cl)=C(Cl)C2=O | 20.3 µM
CCN(CC)c1nc(N)nc(NS(=O)(=O)c2ccc(Cl)cc2)n1 | > 80 µM (inactive)
N#Cc1ccc(N=c2ssnc2Cl)cc1 | 53.7 µM

SMILES | IC50
COc1cc(-c2cc(OC)c(O)c(OC)c2)cc(OC)c1O | > 80 µM (inactive)
CC(=O)c1cccc(NC(=O)c2cnn(-c3ccccc3)c2C)c1 | 58.4 µM
Cc1[nH]c(=S)c(C#N)c(C)c1CCC#N | > 80 µM (inactive)
C[C@]12CC[C@@H]3c4ccc(O)c(O)c4CC[C@H]3[C@@H]1CC[C@@H]2O | 41.3 µM
O=C(CCc1ccc(S(=O)(=O)N2CCOCC2)cc1)N/N=C/c1ccc(O)c(O)c1O | 36.5 µM
O=c1c2ccccc2sn1-c1ccc(S(=O)(=O)N2CCCC2)cc1 | 28.4 µM
CC1(C)CN(c2ccccc2)N(C(=O)c2ccc(C#N)cc2)C1=O | > 80 µM (inactive)
CN1CCN(C(=S)c2ccc(Br)cc2)CC1 | > 80 µM (inactive)
CCN(CC)CCn1c2ccccc2c(=O)c2c(O)ccc(O)c21 | 33.1 µM
O=c1c2cc(F)ccc2sn1-c1ccccc1Cl | 12.7 µM
Cc1ccccc1-n1c(-c2ccc3ccccc3n2)n[nH]c1=S | 51.3 µM
Cc1ccc(NC2=C(NC(=O)c3ccccc3)C(=O)c3ccccc3C2=O)cc1Cl | > 80 µM (inactive)
COc1cc(NC(C)CCc2ccccc2)cc(OC)c1OC (configuration not stated) | > 80 µM (inactive)
CCS(=O)(=O)N1CCN(c2ccc([N+](=O)[O-])c(NC(C)c3ccccc3)c2)CC1 (configuration not stated) | > 80 µM (inactive)
COc1cc(N=c2ssnc2Cl)cc(OC)c1 | > 80 µM (inactive)
CC(=O)OCCCNc1cc(Sc2nc3ccccc3s2)c2nonc2c1[N+](=O)[O-] | 14.9 µM
CCOC(=O)CSc1nnc(NC(=O)c2cccc([N+](=O)[O-])c2)s1 | > 80 µM (inactive)
CN1CCc2cccc3c2[C@@H]1Cc1ccc(O)c(O)c1-3 | > 80 µM (inactive)
CCc1c(C(=O)Nc2ccccc2)c(C)[nH]c(=S)c1C#N | > 80 µM (inactive)
Cc1ccc(-c2nc(N)s[n+]2-c2ccccc2)cc1 | > 80 µM (inactive)
CNS(=O)(=O)c1ccc(-c2ccc(C=C3C(=O)NC(=O)NC3=O)o2)cc1 | 33.6 µM
COc1cccc(C(=O)Nc2nnc(C(C)C)s2)c1 | 21.4 µM

SMILES | IC50
COc1ccc(-c2cn3cc(C)ccc3n2)cc1Br | > 80 µM (inactive)
C/C(Cn1nnc([N+](=O)[O-])n1)=N\NC(=O)c1ccc(O)cc1 | > 80 µM (inactive)
O=C(Nc1nnc(S(=O)(=O)N2CCCCC2)s1)c1cccc(Br)c1 | 23.8 µM
Cc1ccc(S(=O)c2ccc([N+](=O)[O-])c3nonc23)cc1 (configuration not stated) | > 80 µM (inactive)
O=C(CNC(=O)c1ccco1)OCC(=O)c1ccc([N+](=O)[O-])cc1 | 50.9 µM
CCc1ccc(S(=O)(=O)Nc2cc(SCC(=O)O)c(O)c3ccccc23)cc1 | 44.6 µM
O=C(O)c1cccc(N2C(=O)C=CC2=O)c1 | 55.2 µM
O=[N+]([O-])c1ccc(N/N=C/c2ccc(O)c(O)c2O)c(S(=O)(=O)N2CCOCC2)c1 | 75.5 µM
Clc1ccc2nc(-c3ccc4c(c3)OCO4)cn2c1 | 40.7 µM
Cc1cc(C)c2c(=O)n(CC(=O)NC3CCCC3)sc2n1 | > 80 µM (inactive)
Cc1cc(C)c2sc(NC(=O)C3=COCCO3)nc2c1 | 30.2 µM
Cc1ccc(C)c(-n2sc3ccc(F)cc3c2=O)c1 | 11.4 µM
CC(=O)Nc1cc([N+](=O)[O-])ccc1OCc1ccccc1 | > 80 µM (inactive)
COc1ccc(C2(CNC(=O)c3ccc(OC)c([N+](=O)[O-])c3)CCCCC2)cc1OC | > 80 µM (inactive)
CCn1c(SCc2nc3scc(-c4ccccc4)c3c(=O)[nH]2)nnc1-c1cccs1 | 58 µM
C/C(Cn1nnc([N+](=O)[O-])n1)=N\NC(=O)c1ccccc1O | 46.3 µM
CC(C)c1cc2c(c(O)c1O)[C@@]13CCCC(C)(C)C1CC2OC3=O (some centres not stated) | 58.4 µM
COc1cc(N)c2ncccc2c1SC | 38.8 µM
Cc1ccc(S(=O)(=O)NNc2ccccc2)cc1 | 54.1 µM
CCNc1nc(NC(C)C)nc(NS(=O)(=O)c2ccc(Cl)cc2)n1 | > 80 µM (inactive)
COC(=O)CCC(=O)OC1(C)C(=O)C2=CN(c3ccc(OC)cc3)C(c3ccc(OC)cc3)=CC2=C(Br)C1=O (configuration not stated) | > 80 µM (inactive)
O=C1C(=Cc2cccc(O)c2O)SC(=S)N1CCCN1CCOCC1 | 28.2 µM

SMILES | IC50
COc1ccc(-n2c(=S)[nH]c3c(sc(=S)n3-c3ccccc3)c2=O)c(OC)c1 | > 80 µM (inactive)
O=[N+]([O-])c1ccc2c(c1)-c1ccccc1C2O (configuration not stated) | 42.9 µM
CCCCC1C(=O)N(c2ccccc2)N(c2ccc(O)cc2)C1=O (configuration not stated) | > 80 µM (inactive)
O=C(CN1C(=O)C2C3C=CC(C3)C2C1=O)OCC(=O)c1ccc([N+](=O)[O-])cc1 (configuration not stated) | > 80 µM (inactive)
CC(CNc1ccccc1O)C(=O)O (configuration not stated) | > 80 µM (inactive)
COC1=C(Br)C(=O)c2nc(C)ccc2C1=O | > 80 µM (inactive)
CCN1CCCC1CNC(=O)c1ccc2c(c1)NC(=O)/C(=C\c1ccc(C)cc1)S2 (configuration not stated) | 6.79 µM
O=C(Nc1nnc(S(=O)(=O)N2CCCCC2)s1)c1ccc(Cl)cc1 | 25.6 µM
Cc1nnc(N/N=C\c2ccc(-c3cccc(C(=O)O)c3)o2)n1N | 40.1 µM
CC(=O)Nc1ccc(S(=O)(=O)/N=C2\C(=O)c3ccccc3C([O-])=C2n2cc[n+](-c3ccccn3)c2)cc1 | > 80 µM (inactive)
O=C(Nc1ccc(N2CCOCC2)c(Cl)c1)c1ccc(Cl)cc1 | > 80 µM (inactive)
Cc1nnc(SCC(=O)c2cc(C)n(-c3ccc4c(c3)OCO4)c2C)s1 | > 80 µM (inactive)
O=[N+]([O-])c1c(NCCCO)cc(Sc2nc3ccccc3s2)c2nonc12 | 73.7 µM
COC1(OC)C=CC(=O)C=C1NC(=O)c1ccccc1OC(C)=O | > 80 µM (inactive)
Cc1ccc(C(=O)/C=C/C(=O)c2ccc(C)cc2)cc1 | > 80 µM (inactive)
Cc1cccc(NC2=C(NC(=O)c3ccccc3)C(=O)c3ccccc3C2=O)c1 | > 80 µM (inactive)
Cc1ccc2nc(-c3ccc(NC(=S)NC4CC(C)(C)NC(C)(C)C4)cc3)sc2c1 | > 80 µM (inactive)
Cc1ccc(-n2sc3ccccc3c2=O)cc1 | 19.1 µM
CCOC(=O)c1ccc(/[N+]([O-])=C/c2ccccc2)cc1 | > 80 µM (inactive)
COC1=C(OC)C(=O)C(Sc2ccc3ccccc3c2)=CC1=O | 23.3 µM
CN1CCc2cc(O)cc3c2[C@H]1Cc1ccc(O)c(O)c1-3 | > 80 µM (inactive)
Cc1cc(C)c(S(=O)(=O)/N=C2/C=C(SCC(=O)O)C(=O)c3ccccc32)cc1C | > 80 µM (inactive)

SMILES | IC50
CCN1CCN(c2nc(C)nc3c2sc(=S)n3C)CC1 | > 80 µM (inactive)
CN=c1nc(-c2ccccc2)n(-c2ccccc2)s1 | 20.6 µM
Cc1ccc(NC(=O)c2ccc(Cl)c(N3C(=O)C=CC3=O)c2)cc1 | 28.2 µM
Cc1cc(C)c2c(=N)c3ccccc3n(CCCCCCCCn3c4ccccc4c(=N)c4c(C)cc(C)nc43)c2n1 | 50.3 µM
CCc1ccccc1N1CSC2=C(C#N)C(c3ccccc3F)CC(=O)N2C1 (configuration not stated) | > 80 µM (inactive)
CC1(OC(=O)C2CCCC2)C(=O)C=C2C=C(c3ccsc3)N(CCc3c[nH]c4ccccc34)C=C2C1=O (configuration not stated) | > 80 µM (inactive)
COc1ccc(/C=C/c2nc3ccccc3n2Cc2ccc(OC)c(OC)c2)cc1 | 51.1 µM
COc1ccc(CCn2c(NN)nc3c2c(=O)[nH]c(=O)n3C)cc1 | 22.4 µM
Cc1ccc(-c2csc(NC(=O)c3ccc(Br)cc3)c2C(=O)O)cc1 | 29.7 µM
Cc1c(Cl)c([N+](=O)[O-])nn1Cc1ccc(C(=O)N/N=C\c2cccc(Br)c2)o1 | > 80 µM (inactive)
CCC(CO)[n+]1c(C)cc(/C=C2\Sc3ccccc3N2Cc2ccccc2)cc1C (configuration not stated) | 24.3 µM
Cn1c(=O)c2[nH]c(-c3ccccc3)c(O)c2n(C)c1=O | > 80 µM (inactive)
O=[N+]([O-])c1cnc(Sc2ccncn2)c([N+](=O)[O-])c1 | 62.8 µM
COc1ccc(N2CSC3=C(C#N)C(c4cc(OC)c(OC)cc4OC)CC(=O)N3C2)c(OC)c1 (configuration not stated) | > 80 µM (inactive)
O=C1OC(c2ccc3ccccc3c2O)(c2ccc3ccccc3c2O)c2ccccc21 | > 80 µM (inactive)
CCCN1CCc2cc(O)cc3c2[C@H]1Cc1ccc(O)c(O)c1-3 | > 80 µM (inactive)
CCN1CCCC1CNC(=O)c1ccc2c(c1)NC(=O)/C(=C\c1ccccc1F)S2 (configuration not stated) | 8.64 µM
O=c1[nH]c2ccc(NCc3ccccc3OCc3ccc(Cl)cc3)cc2[nH]1 | > 80 µM (inactive)
O=C(Cn1sc2ccccc2c1=O)Nc1ccc(Br)cc1 | 17 µM
